Here are results for 9 molecules from US20070173488A1, “Pyrazolothiazole Protein Kinase Modulators” (SGX Pharmaceuticals, Inc., priority 2005, published 2007).

In one assay the target is T1, T315I Abl (Mus musculus, UniProt P00520, T315I).
T1 construct: The c-Abl T315I KD (kinase domain) was purified as follows; made in house; host or cells: E. coli BL21(DE3) pSA0145 (lambda phosphatase co-expression) or BL21(DE3)Codon+RIL
T1 sequence (P00520 242-493 T315I limits assumed): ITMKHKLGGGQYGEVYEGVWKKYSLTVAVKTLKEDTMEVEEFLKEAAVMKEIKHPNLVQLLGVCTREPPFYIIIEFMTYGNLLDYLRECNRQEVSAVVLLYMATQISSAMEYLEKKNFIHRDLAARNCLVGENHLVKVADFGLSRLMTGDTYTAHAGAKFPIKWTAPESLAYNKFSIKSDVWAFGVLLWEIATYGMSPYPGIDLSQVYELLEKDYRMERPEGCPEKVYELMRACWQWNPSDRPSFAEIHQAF
Description: cAbl Luminescence-based Enzyme Assay (Kinase-Glo). Format: biochemical. The text has this: Homogeneous luminescence-based inhibitor screening assays were developed for c-Abl, MET, AurA, and PDK1 kinases (among others). Each of these assays made use of an ATP depletion assay (Kinase-Glo™, Promega Corporation, Madison, Wis.) to quantitate kinase activity. The Kinase-Glo™ format uses a thermostable luciferase to generate luminescent signal from ATP remaining in solution following the kinase reaction. The luminescent signal is inversely correlated with the amount of kinase activity.
Dose response was analyzed using the equation: y=min+{(max−min)/(1 +10^[compound]-logIC50)}, where y is the observed initial slope, max=the slope in the absence of inhibitor, min=the slope at infinite inhibitor, and the IC50 is the [compound] that corresponds to ½ the total observed amplitude (Amplitude=max−min).
An open-reading frame for c-Abl was amplified from a Mus musculus (mouse) cDNA library prepared from freshly harvested mouse liver using a commercially available kit (Invitrogen) by PCR using the following primers: […]
The c-Abl T315I KD (kinase domain) was purified as follows. Cells were collected by centrifugation, lysed in diluted cracking buffer (50 mM Tris HCl, pH 7.5, 500 mM KCl, 0.1% Tween 20, 20 mM Imidazole, with sonication, and centrifuged to remove cell debris. The soluble fraction was purified over an IMAC column charged with nickel (Pharmacia, Uppsala, Sweden), and eluted under native conditions with a gradient of 20 mM to 500 mM imidazole in 50 mM Tris, pH7.8, 500 mM NaCl, 10 mM methionine, 10% glycerol. The protein was then further purified by gel filtration using a Superdex 75 preparative grade column equilibrated in GF5 buffer (10 mM HEPES, pH7.5, 10 mM methionine, 500 mM NaCl, 5 mM DTT, and 10% glycerol). Fractions containing the purified c-Abl T315I KD kinase domain were pooled. The protein obtained was 98% pure as judged by electrophoresis on SDS polyacrylamide gels. […] The protein was then dephosphorylated with Shrimp Alkaline Phosphatase (MBI Fermentas, Burlington, Canada) under the following conditions: 100U Shrimp Alkaline Phosphatase/mg of c-Abl T315I KD, 100 mM MgCl2, and 250 mM additional NaCl. The reaction was run overnight at 23° C. The protein was determined to be unphosphorylated by Mass spectroscopic analysis. Any precipitate was spun out and the soluble fraction was separated from reactants by gel filtration using a Superdex 75 preparative grade column equilibrated in GF4 buffer (10 mM HEPES, pH7.5, 10 mM methionine, 150 mM NaCl, 5 mM DTT, and 10% glycerol).
cAbl Luminescence-based Enzyme Assay
Materials: Abl substrate peptide=EAIYAAPFAKKK-OH (Biopeptide, San Diego, Calif.), ATP (Sigma Cat#A-3377, FW=551), HEPES buffer, pH 7.5, Bovine serum albumin (BSA) (Roche 92423420), MgCl2, Staurosporine (Streptomyces sp. Sigma Cat#85660-1MG), white Costar 384-well flat -bottom plate (VWR Cat#29444-088), Abl kinase (see below), Kinase-Glo™ (Promega Cat#V6712).
Stock Solutions: 10 mM Abl substrate peptide (13.4 mg/ml in miliQH2O) stored at −20° C.; 100 mM HEPES buffer, pH 7.5 (5 ml 1M stock+45ml miliQH2O); 10 mM ATP (5.51 mg/ml in dH2O) stored at −20° C. (diluted 50 μl into total of 10 ml miliQH2O daily =50 μM ATP working stock); 1% BSA (1 g BSA in 100 ml 0.1 M HEPES, pH 7.5, stored at −20° C.), 100 μM MgCl2; 200 μM Staurosporine, 2× Kinase-Glo™ reagent (made fresh or stored at −20° C.).
Standard Assay Setup for 384-well format (20 μl kinase reaction, 40 μl detection reaction): 10 mM MgCl2; 100 μM Abl substrate peptide; 0.1% BSA; 1 μl test compound (in DMSO); 0.4 μg/ml Abl kinase domain; 10 μM ATP; 100 mM HEPES buffer. Positive controls contained DMSO with no test compound. Negative controls contained 10 μM staurosporine.
The kinase reactions were initiated at time t=0 by the addition of ATP. Kinase reactions were incubated at 21° C. for 30 min, then 20 μl of Kinase-Glo™ reagent were added to each well to quench the kinase reaction and initiate the luminescence reaction. […]

A further assay relates to HCT116 cells. Briefly: 96-well XTT cell survival assay (HCT116 cells). Format: cell-based. To be noted: Homo sapiens, HCT-116, 72 hours. The method, then:
HCT116 cells were maintained in McCoy's 5a Medium supplemented with 10% fetal bovine serum (FBS) 2 mM L-Glutamine and 100 units penicillin/100 μg streptomycin, at 37° C. in 5% CO2.
Compounds were tested in the following assays in duplicate.
96-well XTT assay (HCT116 cells): Cells were grown in growth media containing various concentrations of compounds (duplicates) on a 96-well flat bottom plate for 72 hours at 37° C. in 5% CO2. The starting cell number was 5000 cells per well and volume was 120 μl. At the end of the 72-hour incubation, 40 μl of XTT labeling mixture (50:1 solution of sodium 3′-[1-(phenylaminocarbonyl)-3,4-tetrazolium]-bis (4-methoxy-6-nitro) benzene sulfonic acid hydrate and Electron-coupling reagent: PMS (N-methyl dibenzopyrazine methyl sulfate) were added to each well of the plate. After an additional 2-6 hours of incubation at 37° C., the absorbance reading at 650 nm was measured with a spectrophotometer.
Background: Tetrazolium assays rely on reduction of a dye to a coloured formazan, in cell work by metabolically active cells.

As usually defined, the IC50 is the concentration at which inhibition is half-maximal. A low value points to greater potency. For the molecule `O=C(Nc1nc2[nH]nc(-n3cncc3-c3cccc(F)c3F)c2s1)C1CC1` [Cyclopropanecarboxylic acid {3-[5-(2,3-difluoro-phenyl)-imidazol-1-yl]-1H-pyrazolo[3,4-d]thiazol-5-yl}-amide], the concentration for half-maximal inhibition (IC50) against T315I Abl is below 100 nM; in the assay on HCT116 cells, 100 to 1000 nM.
In the same order, the values of `O=C(Nc1nc2[nH]nc(-n3cncc3-c3ccccc3)c2s1)C1CC1` [Cyclopropanecarboxylic acid [3-(5-phenyl-imidazol-1-yl)-1H-pyrazolo[3,4-d]thiazol-5-yl]-amide] are 100 to 1000 nM and 100 to 1000 nM.
In the same order, the values of `O=C(Nc1nc2[nH]nc(-n3cncc3-c3c(Cl)cccc3Cl)c2s1)C1CC1` [Cyclopropanecarboxylic acid {3-[5-(2,6-dichloro-phenyl)-imidazol-1-yl]-1H-pyrazolo[3,4-d]thiazol-5-yl}-amide] are below 100 nM and 100 to 1000 nM.
Take `O=C(Nc1cc[nH]n1)Nc1nc2[nH]nc(-n3cncc3-c3ccccc3Cl)c2s1` [1-{3-[5-(2-Chloro-phenyl)-imidazol-1-yl]-1H-pyrazolo[3,4-d]thiazol-5-yl}-3-(1H-pyrazol-3-yl)-urea]: the IC50 in the assay with HCT116 cells was 100 to 1000 nM.
The molecule `O=C(Nc1nc2[nH]nc(-n3cncc3-c3ccc4ccccc4c3)c2s1)C1CC1` [Cyclopropanecarboxylic acid [3-(5-naphthalen-2-yl-imidazol-1-yl)-1H-pyrazolo[3,4-d]thiazol-5-yl]-amide] registered an IC50 on T315I Abl of 1000 to 10000 nM.
In the case of `O=C(Nc1nc2[nH]nc(-n3cncc3-c3ccccn3)c2s1)C1CC1` [Cyclopropanecarboxylic acid [3-(5-pyridin-2-yl-imidazol-1-yl)-1H-pyrazolo[3,4-d]thiazol-5-yl]-amide], the values for the IC50 on T315I Abl and with HCT116 cells were below 100 nM and 100 to 1000 nM, respectively.
For the molecule `O=C(Nc1nc2[nH]nc(-n3cncc3-c3c(Cl)ccc(Cl)c3Cl)c2s1)C1CC1` [Cyclopropanecarboxylic acid {3-[5-(2,3,6-trichloro-phenyl)-imidazol-1-yl]-1H-pyrazolo[3,4-d]thiazol-5-yl}-amide], the IC50 is below 100 nM against T315I Abl and 1000 to 10000 nM in the assay on HCT116 cells.
In the same order, the values of `O=C(Nc1nc2[nH]nc(-n3cncc3-c3ccccc3Cl)c2s1)C1CC1` [Cyclopropanecarboxylic acid {3-[5-(2-chloro-phenyl)-imidazol-1-yl]-1H-pyrazolo[3,4-d]thiazol-5-yl}-amide] are below 100 nM and 100 to 1000 nM.
On T315I Abl, `NC(=O)COc1ccc(-c2cncn2-c2n[nH]c3nc(NC(=O)C4CC4)sc23)c(Cl)c1` [Cyclopropanecarboxylic acid {3-[5-(4-carbamoylmethoxy-2-chloro-phenyl)-imidazol-1-yl]-1H-pyrazolo[3,4-d]thiazol-5-yl}-amide] registered an IC50 below 100 nM.
